This assay has as its system GluR2-lacking AMPA receptors. Particulars: injection into accumbens 15 min before extinction test.

Where two headings read alike, the source gives them in different places.

Procedure: Male rats were trained to nose-poke (biochemical and electrophysiology experiments) or lever-press (Naspm accumbens injections experiment) for 6-h/day for 10-12 days; each cocaine infusion was paired with a tone-light or light cue. After self-administration training, the rats were tested for cue-induced cocaine-seeking after 1 or 45 withdrawal days. During testing, lever or nose-poke responding led to contingent presentations of the cue previously paired with cocaine infusions, but not cocaine. Responding on the previously active lever or hole was the operational measure of cocaine-seeking.
The rats were anesthetized using isoflurane gas (Henry Schein, Melville, N.Y.) and flunixin meglumine was administered before surgery (2 mg/kg, i.p.) as an analgesic. A silastic catheter was inserted into the right auricle through the external jugular vein, passed under the skin and fixed in the mid-scapular region. The rats recovered from surgery for at least seven days prior to beginning self-administration training sessions. During this time, catheters were flushed every 24-48 h with sterile 0.9% saline. […]

Consider `Cl.Cl.Cl.NCCCNCCCCNCCCNC(=O)Cc1cccc2ccccc12` [Naspm, 1-Naphthylacetyl spermine trihydrochloride], for which the “cue-induced cocaine-seeking (responses on previously active lever)” value runs as follows: (withdrawal day 1) “did not alter”; (withdrawal day 45) “significantly reduced”.

The values are drawn from patent US20100048722A1, “FORMATION OF ACCUMBENS GluR2-LACKING AMPA RECEPTORS MEDIATES […] COCAINE CRAVING” (ROSALIND FRANKLIN UNIVERSITY OF MEDICINE AND SCIENCE, priority 2008, published 2010).
